Laboratory results published in patent US12643867B2, “Compositions and uses thereof” (University of Virginia Patent Foundation, priority 2017, dated 2026).

Tests used:
[1] = molecular target: T1, E2AK2 (Interferon-induced, double-stranded RNA-activated protein kinase) (Homo sapiens, UniProt P19525); assay: SILAC LC-MS ATP acyl phosphate probe competition, native kinases in HEK293T; type: binding; settings: site Lys2; ATP 1 mM; Ketanserin, Ritanserin 100 μM; RF001 1 mM
T1 construct: measured against >50 native kinases quantified in HEK293T soluble proteomes; endogenous in cells; host or cells: HEK293T soluble proteome
T1 sequence (P19525 whole entry): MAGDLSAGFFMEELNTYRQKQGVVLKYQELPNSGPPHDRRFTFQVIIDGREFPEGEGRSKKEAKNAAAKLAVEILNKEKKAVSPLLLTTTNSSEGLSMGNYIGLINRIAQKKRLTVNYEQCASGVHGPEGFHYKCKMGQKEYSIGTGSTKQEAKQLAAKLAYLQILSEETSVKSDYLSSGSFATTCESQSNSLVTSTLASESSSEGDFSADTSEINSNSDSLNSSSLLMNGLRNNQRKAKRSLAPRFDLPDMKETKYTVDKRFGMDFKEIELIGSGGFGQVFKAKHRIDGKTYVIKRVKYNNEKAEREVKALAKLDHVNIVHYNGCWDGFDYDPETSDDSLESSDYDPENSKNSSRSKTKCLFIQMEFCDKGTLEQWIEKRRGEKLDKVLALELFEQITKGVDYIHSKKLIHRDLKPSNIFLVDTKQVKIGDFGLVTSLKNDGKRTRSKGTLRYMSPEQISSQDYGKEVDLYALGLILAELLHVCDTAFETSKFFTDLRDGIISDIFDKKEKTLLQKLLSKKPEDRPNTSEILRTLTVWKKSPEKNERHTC
Summary of the method: (§1)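 First, HEK293T proteomes at 2 mg/ml in kinase buffer were exposed to compound (heavy) or DMSO (light) for 30 min at 25° C. Next, samples were pooled 1:1 and trypsin/Lys-C digested. Finally, desthiobiotin peptides were enriched on avidin and measured by data-dependent LC-MS/MS.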

[2] = molecular target: T2, LATS1 (Serine/threonine-protein kinase LATS1) (Homo sapiens, UniProt O95835); assay: as above; type: binding; settings: site Lys1; ATP 1 mM; Ketanserin, Ritanserin 100 μM; RF001 1 mM
T2 construct: Native kinases; endogenous in cells; host or cells: HEK293T soluble proteome
T2 sequence (O95835 1-1130): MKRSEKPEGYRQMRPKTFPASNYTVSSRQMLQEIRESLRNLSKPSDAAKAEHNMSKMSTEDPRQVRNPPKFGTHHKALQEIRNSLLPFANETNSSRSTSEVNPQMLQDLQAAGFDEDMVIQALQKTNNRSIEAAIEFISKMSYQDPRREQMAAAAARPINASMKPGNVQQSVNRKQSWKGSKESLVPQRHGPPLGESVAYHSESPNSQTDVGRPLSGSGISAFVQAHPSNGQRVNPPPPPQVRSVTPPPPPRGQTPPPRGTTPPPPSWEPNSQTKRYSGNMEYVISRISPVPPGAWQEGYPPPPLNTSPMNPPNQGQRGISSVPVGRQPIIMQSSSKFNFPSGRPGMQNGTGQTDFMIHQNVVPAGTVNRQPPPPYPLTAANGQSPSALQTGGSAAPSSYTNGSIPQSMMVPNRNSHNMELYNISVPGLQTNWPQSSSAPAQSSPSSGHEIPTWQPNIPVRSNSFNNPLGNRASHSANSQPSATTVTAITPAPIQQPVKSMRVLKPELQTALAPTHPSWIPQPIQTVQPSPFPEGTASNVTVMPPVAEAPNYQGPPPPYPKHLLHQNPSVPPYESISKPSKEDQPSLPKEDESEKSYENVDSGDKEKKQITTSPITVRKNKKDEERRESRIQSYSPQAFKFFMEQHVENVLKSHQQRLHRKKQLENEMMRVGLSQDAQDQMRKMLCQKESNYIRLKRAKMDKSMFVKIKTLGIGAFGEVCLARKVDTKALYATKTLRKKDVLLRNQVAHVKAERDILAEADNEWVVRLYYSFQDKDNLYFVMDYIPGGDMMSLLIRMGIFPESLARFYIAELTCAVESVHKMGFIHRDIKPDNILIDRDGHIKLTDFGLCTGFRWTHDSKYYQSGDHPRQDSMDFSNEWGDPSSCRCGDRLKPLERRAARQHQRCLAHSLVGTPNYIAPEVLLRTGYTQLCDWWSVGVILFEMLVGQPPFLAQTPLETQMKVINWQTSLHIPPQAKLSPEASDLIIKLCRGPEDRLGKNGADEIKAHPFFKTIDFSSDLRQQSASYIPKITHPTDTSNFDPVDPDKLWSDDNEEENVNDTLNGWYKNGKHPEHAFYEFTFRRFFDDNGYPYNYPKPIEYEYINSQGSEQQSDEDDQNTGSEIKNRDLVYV
Summary of the method: as §1

Compound | SILAC ratio, E2AK2 probe-modified peptide [1] | SILAC ratio, LATS1 probe-modified peptide [2]
O=C(c1ccc(F)cc1)C1CCN(CCn2c(=O)[nH]c3ccccc3c2=O)CC1 [Ketanserin] | 1.3 | 1.2
Cc1nc2sccn2c(=O)c1CCN1CCC(=C(c2ccc(F)cc2)c2ccc(F)cc2)CC1 [Ritanserin] | 2.8 | 1.8
Fc1ccc(C(=C2CCNCC2)c2ccc(F)cc2)cc1 [RF001, 4-(Bis(4-fluorophenyl)methylene) piperidine] | 1.2 | 1.4
